From publication PMC8600679, “Substituted Two- to Five-Ring Polycyclic Aromatic Compounds Are Potent Agonists of Atlantic Cod (Gadus morhua) Aryl Hydrocarbon Receptors Ahr1a and Ahr2a” (Environmental Science & Technology, 2021)
Read-outs that look alike come from different tables or passages of the source.

Experiments:
Atlantic cod Ahr2a = target: T1, Atlantic cod Ahr2a (Gadus morhua, UniProt A0A6H1Z3G8); assay: cell-based; conditions: for Ahr2a REP25: EC25 of TCDD divided by concentration of PAC giving 25% of TCDD response; for Efficacy compared to TCDD via Ahr2a: Welch's t-test, Supporting Table S6; for Activation of Ahr2a (agonist or not): in vitro transactivation; for fold higher REP25 with Ahr2a compared to Ahr1a: Ahr2a versus Ahr1a
T1 sequence (A0A6H1Z3G8 1-1127): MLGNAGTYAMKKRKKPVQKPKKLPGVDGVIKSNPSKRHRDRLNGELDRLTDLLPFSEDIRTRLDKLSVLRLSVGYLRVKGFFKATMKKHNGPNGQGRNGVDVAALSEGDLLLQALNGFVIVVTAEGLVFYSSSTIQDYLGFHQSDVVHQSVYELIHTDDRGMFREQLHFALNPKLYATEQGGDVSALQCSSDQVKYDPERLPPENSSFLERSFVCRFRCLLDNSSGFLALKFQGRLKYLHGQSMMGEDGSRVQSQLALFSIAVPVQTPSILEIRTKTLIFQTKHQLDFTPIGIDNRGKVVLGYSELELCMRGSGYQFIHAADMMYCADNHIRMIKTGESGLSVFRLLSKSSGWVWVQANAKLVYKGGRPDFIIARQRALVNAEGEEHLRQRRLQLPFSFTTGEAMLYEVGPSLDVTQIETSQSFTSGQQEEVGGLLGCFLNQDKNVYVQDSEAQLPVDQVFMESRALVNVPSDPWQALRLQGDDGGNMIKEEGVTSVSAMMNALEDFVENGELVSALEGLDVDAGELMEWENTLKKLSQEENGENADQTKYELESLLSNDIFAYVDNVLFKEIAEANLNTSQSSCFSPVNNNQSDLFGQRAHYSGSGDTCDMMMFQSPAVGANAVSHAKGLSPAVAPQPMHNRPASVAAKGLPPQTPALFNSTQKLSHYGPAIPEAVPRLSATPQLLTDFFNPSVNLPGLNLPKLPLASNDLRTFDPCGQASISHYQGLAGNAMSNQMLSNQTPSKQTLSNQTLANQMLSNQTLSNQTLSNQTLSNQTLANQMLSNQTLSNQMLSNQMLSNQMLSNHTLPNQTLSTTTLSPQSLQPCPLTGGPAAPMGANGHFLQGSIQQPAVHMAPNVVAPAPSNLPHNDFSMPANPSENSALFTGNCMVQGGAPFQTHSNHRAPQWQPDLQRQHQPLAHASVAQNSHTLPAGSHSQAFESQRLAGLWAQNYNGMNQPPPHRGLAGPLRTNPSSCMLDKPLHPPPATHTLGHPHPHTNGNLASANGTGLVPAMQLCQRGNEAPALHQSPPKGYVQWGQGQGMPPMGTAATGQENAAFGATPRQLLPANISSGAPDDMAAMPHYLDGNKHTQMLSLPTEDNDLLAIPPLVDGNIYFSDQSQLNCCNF

COS-7 cells = assay: Resazurin reduction viability assay; type: cell-based, simian; conditions: highest concentrations used; relative to 0.5% DMSO solvent control
Experimental: COS-7 simian kidney cells were seeded onto 96 well plates (10 000 cells/well) in Dulbecco’s modified Eagle’s medium (DMEM) with phenol red, supplemented with 10% fetal bovine serum (FBS), 4 mM L-glutamate, 1 mM sodium pyruvate, and 100 U/mL penicillin–streptomycin (Merck KGaA, Darmstadt, Germany), and cultivated at 37 °C with 5% CO2 for 24 h. Cells were transiently co-transfected with a eukaryotic expression plasmid (pcDNA3.1/Zeo(+), 31 ng/well), pcDNA3.1/Zeo(+)-based plasmids encoding gmAhr1a or gmAhr2a (3 ng/well), gmArnt1 (6 ng/well),[37] a luciferase reporter plasmid containing four DREs (pGudLuc6.1, 30 ng/well), and a β-galactosidase normalization plasmid (pCMV-βGAL, 30 ng/well),[45],[46] using a Mirus TransIT LT-1 transfection reagent according to the recommendations of the supplier. COS-7 cells were seeded and cultivated in DMEM (4500 mg/L glucose), supplemented with 10% FBS, 1 mM sodium pyruvate, and 4 mM L-glutamine. In the exposure medium, FBS was substituted with 10% charcoal-stripped FBS (VWR International, Radnor). To create the exposure media with the highest test concentration, compounds solved in dimethyl sulfoxide (DMSO) were diluted 1:200 in exposure medium, resulting in exposure media with 1× test compound and 0.5% DMSO. The highest concentration exposure media were serially diluted five times (1:2 for the first dilution, then 1:5) in exposure medium supplemented with 0.5% DMSO. Following transfection, cells were incubated in exposure media containing PACs or solvent control (0.5% DMSO) for 24 h. Reporter gene assays were repeated at least three times and with three technical replicates per exposure. TCDD (30 pM to 100 nM) was used as a known agonist in each experiment. Absorbance and luminescence measurements were performed on an EnSpire Multimode plate reader (PerkinElmer, Waltham, MA). While no wavelength filtering was used to measure firefly luciferase activity by luminescence, absorbance measurements to quantify β-galactosidase activity were performed at 420 nm wavelength. The viability of exposed cells was evaluated using the resazurin reduction assay as previously described.[47],[48]
Recorded luminescence was normalized for variation in transfection efficiencies using β-galactosidase enzyme activity. The difference in normalized light units measured in lysates from exposed cells to solvent-exposed cells was calculated and expressed relative to the maximum response in TCDD-exposed cells. Response curves were prepared by nonlinear regression analyses in Prism v7 and used for the determination of half-maximal effective concentration values (EC50) and maximum efficacies (Emax). EC50 values were only determined for compounds that produced a sigmoidal concentration–response curve. Relative effect potencies 25 (REP25) were determined by dividing the EC25 of TCDD by the concentration of PAC necessary to produce a response equal to 25% of the response of TCDD with gmAhrs, essentially as described by Villeneuve et al. and Lam et al.[49],[50] The D’Agostino–Pearson (Ahr activation data) or Kolmogorov–Smirnov (viability data) normality tests were used to confirm the normal distribution of the data. One-way analysis of variance (ANOVA) and Dunnett′s test were used to compare responses at different concentrations of compounds and solvent control mediated via the same Ahr, in addition to comparing metabolic activity in PAC-exposed cells and cells exposed to solvent control in the resazurin reduction assay. Welch′s t-test was used to compare the maximum Ahr-mediated response and potency (Emax and EC50) between Ahr1a or Ahr2a produced by the same test compound (Prism v7).

Atlantic cod Ahr1a = Atlantic cod Ahr1a (Gadus morhua, UniProt A0A6H1Z2L5); assay: cell-based; conditions: for Ahr1a REP25: EC25 of TCDD divided by concentration of PAC giving 25% of TCDD response; for Efficacy compared to TCDD with Ahr1a: Welch's t-test, Supporting Table S6; for Activation of Ahr1a (agonist or not): in vitro transactivation
Sequence of Atlantic cod Ahr1a (A0A6H1Z2L5 1-957): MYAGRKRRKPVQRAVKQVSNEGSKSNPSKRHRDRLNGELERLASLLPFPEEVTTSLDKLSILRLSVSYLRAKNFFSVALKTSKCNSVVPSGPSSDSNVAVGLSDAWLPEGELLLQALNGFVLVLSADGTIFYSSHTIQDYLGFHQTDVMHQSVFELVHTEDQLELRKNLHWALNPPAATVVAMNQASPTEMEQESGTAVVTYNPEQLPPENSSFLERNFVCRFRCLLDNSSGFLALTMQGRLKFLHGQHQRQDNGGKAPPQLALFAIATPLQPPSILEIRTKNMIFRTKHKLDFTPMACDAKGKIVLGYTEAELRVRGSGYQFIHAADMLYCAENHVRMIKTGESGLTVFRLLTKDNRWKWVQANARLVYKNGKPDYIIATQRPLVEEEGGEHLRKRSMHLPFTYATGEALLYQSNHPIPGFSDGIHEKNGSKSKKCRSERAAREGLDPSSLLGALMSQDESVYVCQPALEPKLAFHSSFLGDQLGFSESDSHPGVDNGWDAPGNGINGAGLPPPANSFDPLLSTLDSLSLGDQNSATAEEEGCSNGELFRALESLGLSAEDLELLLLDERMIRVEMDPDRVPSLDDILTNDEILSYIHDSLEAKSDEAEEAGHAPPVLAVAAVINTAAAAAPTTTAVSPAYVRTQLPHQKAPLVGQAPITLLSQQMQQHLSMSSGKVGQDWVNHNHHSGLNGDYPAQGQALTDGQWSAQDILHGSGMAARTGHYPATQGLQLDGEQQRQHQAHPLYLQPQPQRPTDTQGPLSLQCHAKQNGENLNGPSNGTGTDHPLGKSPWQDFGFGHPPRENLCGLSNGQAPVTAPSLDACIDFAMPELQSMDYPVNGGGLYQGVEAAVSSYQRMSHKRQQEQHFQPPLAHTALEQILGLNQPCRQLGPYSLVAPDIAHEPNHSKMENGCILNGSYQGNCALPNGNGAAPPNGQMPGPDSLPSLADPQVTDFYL
Sequence of Atlantic cod Ahr1a (A0A8C5CZZ9 1-645 partner): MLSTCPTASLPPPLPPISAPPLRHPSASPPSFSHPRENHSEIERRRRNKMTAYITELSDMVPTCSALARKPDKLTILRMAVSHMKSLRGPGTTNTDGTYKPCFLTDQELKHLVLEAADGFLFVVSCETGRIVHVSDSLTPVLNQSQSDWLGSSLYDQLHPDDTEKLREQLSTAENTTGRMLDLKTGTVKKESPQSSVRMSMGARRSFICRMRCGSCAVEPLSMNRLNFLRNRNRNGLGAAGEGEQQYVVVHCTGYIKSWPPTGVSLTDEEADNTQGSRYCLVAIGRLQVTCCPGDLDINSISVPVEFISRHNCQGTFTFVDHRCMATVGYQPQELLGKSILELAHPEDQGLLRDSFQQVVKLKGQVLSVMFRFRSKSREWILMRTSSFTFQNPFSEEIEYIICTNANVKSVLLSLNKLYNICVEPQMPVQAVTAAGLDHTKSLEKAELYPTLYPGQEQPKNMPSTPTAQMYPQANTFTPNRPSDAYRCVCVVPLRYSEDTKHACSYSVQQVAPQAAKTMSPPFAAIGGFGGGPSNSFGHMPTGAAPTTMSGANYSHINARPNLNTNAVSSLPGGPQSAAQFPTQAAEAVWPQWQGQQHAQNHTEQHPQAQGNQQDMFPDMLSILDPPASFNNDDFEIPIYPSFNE

[1] = parameters: method as in PMID 29505926; conditions: cited from earlier work; for agonistic potential, times higher than CHR: from TEF values; for toxic equivalent factor (TEF): toxic potential relative to the toxicity of BAP
[2] = Ahr2a EC50 (nM), COS-7 cells, 24 h exposure
[3] = COS-7, read-out: Ahr2a Relative Emax (%)
[4] = Potency (EC50, nM) Ahr2a, Supplementary Table S5
[5] = Ahr1a EC50 (nM), COS-7 cells, 24 h exposure
[6] = COS-7, read-out: Ahr1a Relative Emax (%)
[7] = percent of maximum efficacy determined for TCDD, COS-7 cells, 24 h exposure, None = no agonistic response significantly different from solvent
[8] = COS-7 cells, 24 h exposure, read-out: Ahr2a EC50
[9] = Supplementary Table S5, read-out: Potency (EC50, nM) Ahr2a
[10] = percent of maximum efficacy determined for TCDD, COS-7 cells, 24 h exposure, None = no agonistic response significantly different from solvent, read-out: Ahr2a Relative Emax (%)
[11] = COS-7 cells, 24 h exposure, read-out: Ahr1a EC50
[12] = Supplementary Table S5, read-out: Potency (EC50, nM) Ahr1a
[13] = percent of maximum efficacy determined for TCDD, COS-7 cells, 24 h exposure, None = no agonistic response significantly different from solvent, read-out: Ahr1a Relative Emax (%)

Structure (SMILES)	Ahr2a REP25 (Atlantic cod Ahr2a)	Efficacy compared to TCDD via Ahr2a (Atlantic cod Ahr2a)	Metabolic activity (cell viability) of exposed COS-7 cells (COS-7 cells)	Ahr1a REP25 (Atlantic cod Ahr1a)	Efficacy compared to TCDD with Ahr1a (Atlantic cod Ahr1a)	toxic equivalent factor (TEF) [1]	EC50 (Atlantic cod Ahr2a; [8]) [nM]	EC50 (Atlantic cod Ahr2a; [9]) [nM]	Emax (Atlantic cod Ahr2a; [10]) [%]	EC50 (Atlantic cod Ahr1a; [11]) [nM]	EC50 (Atlantic cod Ahr1a; [12]) [nM]	Emax (Atlantic cod Ahr1a; [13]) [%]	fold higher REP25 with Ahr2a compared to Ahr1a (Atlantic cod Ahr2a)	further results
Oc1cccc2c1ccc1c3ccccc3ccc21 [1-COH, Chrysene-1-ol]	0.0077	lower efficacies in comparison to TCDD	slight reduction in metabolic activities	0.0045	higher efficacies (superefficacies) than TCDD	–	–	–	–	–	–	–	–	EC50 (Atlantic cod Ahr2a; [2]): 633 nM; Emax (Atlantic cod Ahr2a; [3]): 72.8%; EC50 (Atlantic cod Ahr2a; [4]): 633 nM; EC50 (Atlantic cod Ahr1a; [5]): 485 nM; Emax (Atlantic cod Ahr1a; [6]): 116%; Emax (Atlantic cod Ahr1a; COS-7, read-out: Efficacy (Emax, %) Ahr1a): 116%; EC50 (Atlantic cod Ahr1a; Potency (EC50, nM) Ahr1a, Supplementary Table S5): 485 nM
Cc1cccc2c1ccc1c3ccccc3ccc21 [1-MC, 1-Methylchrysene]	0.022	lower efficacies in comparison to TCDD	–	0.0070	lower efficacies than TCDD	0.1	–	–	–	–	–	–	–	EC50 (Atlantic cod Ahr2a; [2]): 172 nM; Emax (Atlantic cod Ahr2a; [3]): 43.6%; EC50 (Atlantic cod Ahr2a; [4]): 172 nM; EC50 (Atlantic cod Ahr1a; [5]): 175 nM; Emax (Atlantic cod Ahr1a; [6]): 45.8%; agonistic potential, times higher than CHR [1]: 10 times
Cc1cc2ccc3ccccc3c2cc1C [2,3-DMP, 2,3-Dimethylphenanthrene]	–	–	slight reduction in metabolic activities	–	–	–	–	–	–	–	–	–	–	Activation of Ahr2a (agonist or not) (Atlantic cod Ahr2a): did not activate; Ahr2a Relative Emax (%) (Atlantic cod Ahr2a; [7]): None; Activation of Ahr1a (agonist or not) (Atlantic cod Ahr1a): did not activate; Ahr1a Relative Emax (%) (Atlantic cod Ahr1a; [7]): None
Oc1ccc2ccc3c4ccccc4ccc3c2c1 [3-COH, Chrysene-3-ol]	0.0099	lower efficacies in comparison to TCDD	slight reduction in metabolic activities	0.00257	lower efficacies than TCDD	–	275	274	66.1	345	345	86.5	–	–
COc1ccc2ccc3c4ccccc4ccc3c2c1 [3-MOC, 3-Methoxychrysene]	0.0588	lower efficacies in comparison to TCDD	slight reduction in metabolic activities	0.0056	lower efficacies than TCDD	–	98.6	–	80.8	195	–	66.6	5- to 10 fold	–
COc1cccc2ccc3c4ccccc4ccc3c12 [4-MOC, 4-Methoxychrysene]	0.206	–	slight reduction in metabolic activities	0.033	lower efficacies than TCDD	–	30.9	–	93.7	43.8	–	83.8	5- to 10 fold	–
Cc1cc2ccccc2c2ccc3ccccc3c12 [5-MC, 5-Methylchrysene]	0.0495	lower efficacies in comparison to TCDD	slight reduction in metabolic activities	0.00494	efficacies similar to that of TCDD	1.0	193	193	68.4	596	596	90.1	5- to 10 fold	agonistic potential, times higher than CHR [1]: 100 times
Cc1cc2c3ccccc3ccc2c2ccccc12 [6-MC, 6-Methylchrysene]	0.0031	–	slight reduction in metabolic activities	0.00064	efficacies similar to that of TCDD	–	2260	88.8	89.8	–	3540	90.6	5- to 10 fold	–
c1ccc2c(c1)ccc1c3ccccc3ccc21 [CHR, Chrysene]	–	lower efficacies in comparison to TCDD	–	0.00052	lower efficacies than TCDD	0.01	–	3440	–	481	481	40.8	–	Emax (Atlantic cod Ahr2a; COS-7, Supplementary Table S5, read-out: Efficacy (Emax, %) Ahr2a): 3.6%; Activation of Ahr2a (agonist or not) (Atlantic cod Ahr2a): solely activate Ahr1a; Ahr2a Relative Emax (%) (Atlantic cod Ahr2a; [7]): None; Activation of Ahr1a (agonist or not) (Atlantic cod Ahr1a): solely activate Ahr1a
